These results are taken from US20220170944A1, “MATERIALS AND METHODS FOR IDENTIFYING AND TREATING EOSINOPHILIC DISORDERS” (The Regents of the University of California, priority 2019, published 2022).

For data set [1] the following is noted: cited from earlier work.
Data set [2] has as its system EoE fibroblasts and esophageal epithelial cells. In words: COMP expression in cells treated in vitro with recombinant TGFb1. It counts as cell-based, human. The following applies: p<0.0001. The procedure: Primary esophageal fibroblasts from EoE patients were used. The fibroblast were treated in vitro with recombinant TGFb1. […] Biopsies were scored using a standardized histology score. […] COMP expression correlated with fibrosis (r=[…]), basal zone hyperplasia (r=0.59, p<0.0001), and eosinophilia (r=0.54, p<0.0001).

As to `CCc1ccc(CCOc2ccc(CC3SC(=O)NC3=O)cc2)nc1` (centres unmarked) [Pioglitazone, pioglitazone], the “tolerability / drug-related adverse events compared to placebo” value in data set [1] is reported as “no major drug-related adverse events”.
“TGFb1: recombinant TGFb1, the canonical pro-fibrotic molecule transforming growth factor-beta-1”: the COMP expression induction result in data set [2] is “up to 6000 fold”.
